Source: patent US8648105B2, “Diarylthiohydantoin compounds” (The Regents of the University of California, priority 2006, dated 2014)

System: urogenital tract
Experiment: Luciferase transgenic mice with testosterone pellet, urogenital tract weight and photon emission (FIG. 22)
Assay type: in vivo
Conditions: castrated mice with testosterone pellet, 10 mg/kg per day, 14 days
Protocol: FIG. 22 presents results of an experiment conducted with wild type nontransgenic mice (WT), castrated luciferase transgenic mice (Cast), and non-castrated luciferase transgenic mice (Intact). Data are shown for castrated luciferase transgenic mice treated with an implanted testosterone pellet yielding 12.5 mg per kilogram body weight with a 90 day release period (T/Cast), and data are shown for non-castrated luciferase transgenic mice treated with an implanted testosterone pellet yielding 12.5 mg per kilogram body weight with a 90 day release period (Intact+T). […]. (A) Urogenital tract weight at 14 days. (B) Photon emission rate at 14 days. In all cases, a hormone refractory disease state was not induced.
[…]. Moreover, the higher the dose, the lower the PSA level. […]. The weight and rate of photon emission increased for both intact and castrated mice.

## CNC(=O)c1ccc(N2C(=S)N(c3ccc(C#N)c(C(F)(F)F)c3)C(=O)C23CCC3)cc1F [NC53, N-methyl-4-[7-(4-cyano-3-trifluoromethylphenyl)-8-oxo-6-thioxo-5,7-diaza-spiro[3.4]oct-5-yl]-2-fluorobenzamide]
  urogenital tract weight and photon emission: decrease in weight and photon emission
